Experiment: Henry solubility constant Hcp at 298.15 K (mol/(m3 Pa))
Conditions: reference: Dunnivant and Elzerman (1988)

SMILES | Henry solubility constant Hcp
Clc1cccc(-c2cccc(Cl)c2Cl)c1Cl [2,2',3,3'-tetrachlorobiphenyl] | 0.049
Clc1cc(Cl)c(-c2cc(Cl)c(Cl)cc2Cl)cc1Cl [2,2',4,4',5,5'-hexachlorobiphenyl] | 0.075
Clc1cc(Cl)c(-c2c(Cl)cc(Cl)cc2Cl)c(Cl)c1 [2,2',4,4',6,6'-hexachlorobiphenyl] | 0.013
Clc1ccc(Cl)c(-c2cc(Cl)c(Cl)cc2Cl)c1 [2,2',4,5,5'-pentachlorobiphenyl] | 0.039
Clc1ccc(Cl)c(-c2cc(Cl)ccc2Cl)c1 [2,2',5,5'-tetrachlorobiphenyl] | 0.029
Clc1ccc(Cl)c(-c2ccccc2Cl)c1 [2,2',5-trichlorobiphenyl] | 0.026
Clc1cccc(Cl)c1-c1c(Cl)cccc1Cl [2,2',6,6'-tetrachlorobiphenyl] | 0.018
Clc1ccccc1-c1ccccc1Cl [2,2'-dichlorobiphenyl] | 0.029
Clc1cccc(-c2cc(Cl)ccc2Cl)c1 [2,3',5-trichlorobiphenyl] | 0.03
Clc1cc(Cl)c(-c2ccccc2)c(Cl)c1 [2,4,6-trichlorobiphenyl] | 0.015
Clc1ccc(-c2ccccc2)c(Cl)c1 [2,4-dichlorobiphenyl] | 0.028
Clc1ccc(Cl)c(-c2ccccc2)c1 [2,5-dichlorobiphenyl] | 0.025
Clc1ccc(-c2ccc(Cl)c(Cl)c2)cc1Cl [3,3',4,4'-tetrachlorobiphenyl] | 0.1
Clc1cccc(-c2cccc(Cl)c2)c1 [3,3'-dichlorobiphenyl] | 0.042
Clc1ccc(-c2ccccc2)cc1Cl [3,4-dichlorobiphenyl] | 0.048
Clc1ccc(-c2ccc(Cl)cc2)cc1 [4,4'-dichlorobiphenyl] | 0.05

Reference: Sander's compilation of Henry's law constants (doi:10.1016/0045-6535(88)90028-8)
